Patent publication US10759740B2, “Antibacterial agents” (Rutgers, The State University of New Jersey, priority 2016, dated 2020)

Columns and labels:
[1] = test system: Salmonella enterica serovar typhimurium; experiment: Broth microdilution assay (MIC); format: cell-based; conditions: BHI broth, 37° C., 24 h, no visible growth
Protocol: From the frozen stock (−80° C.), bacteria were inoculated into brain-hear infusion (BHI) agar (Becton Dickinson, Franklin Lakes, N.J.) and propagated under aerobic conditions at 37° C. for 24 h. After the incubation, one colony of each bacterial strain was transferred to BHI broth (Becton Dickinson, Franklin Lakes, N.J.) and sub-cultured at least twice into BHI before being used in experiments.
The minimal inhibitory concentration (MIC) of CAms were identified using a broth microdilution assay modified from previous studies. Briefly, the stock solutions of CAMs were first prepared by dissolving in double-distilled water (ddH2O) and then diluted in BHI broth at pre-determined concentrations. Further serial 2-fold dilutions were performed in a 96-well microplate (Becton Dickinson, Franklin Lakes, N.J.) with BHI broth. The inoculum concentration was adjusted to 5×10^6 CFU/mL with ultraviolet-visible (UV-vis) spectroscopy at 600 nm. An equal volume (100 μL) of bacterial suspension was added to each microplate well with a final volume of 200 μL. Plates were incubated at 37° C. for 24 h under aerobic conditions. The lowest CAm concentration that yielded no visible growth was recorded as the MIC. Cetyltrimethylammonium bromide (CTAB), a cationic amphiphile, served as a positive control that could mimic the proposed bactericidal mechanism of the newly synthesized tartaric acid-based compounds.
CAms were evaluated against five selected pathogenic microorganisms, including Gram-positive bacteria (i.e., S. aureus and L. monocytogenes) and Gram-negative bacteria (i.e., E. coli, S. typhimurium, and P. aeruginosa), using a turbidity-based microdilution method. MICs were taken as the lowest concentrations that inhibited the visible bacterial growth.

[2] = test system: Lactobacillus gasseri ATCC 33323; experiment: MIC broth microdilution (Example 3); format: cell-based; conditions: planktonic
Protocol: (§1) G. vaginalis ATCC 14019 strain was grown overnight in Brain Heart Infusion broth (Difco, Sparks, Md.) supplemented with 3% horse serum (sBHI) (JRH Biosciences, KS), while BHI supplemented with 1% glucose (BHIG) was used for biofilm formation assays. Each experiment using G. vaginalis was performed anaerobically (10% hydrogen, 5% carbon dioxide, and 85% nitrogen) within anaerobic glove boxes (Coy Laboratory Products, Inc., Grass Lake, Mich., USA). Three species of vaginal Lactobacillus were used in this study to evaluate the possible harmful effects of CAms on beneficial bacteria: Lactobacillus plantarum ATCC 39268, Lactobacillus rhamnosus 160 (provided by Dr. Aroutcheva, Rush University Medical Center) and Lactobacillus gasseri ATCC 33323; all were grown for 18-24 h in DeMan, Rogosa and Sharpe broth (MRS Difco B D, Franklin Lakes, N.J., USA) under aerobic conditions at 37° C. For lactobacilli biofilm formation, MRS broth supplemented with 1% glucose and 2% sucrose (Fisher Scientific, Waltham, Mass., USA) was utilized.
(§2) To prepare a stock solution, the CAm compounds were dissolved in ddH2O and incubated at 37° C. with shaking at 250 rpm for 10 min. Then, the solution was serially diluted twofold with sBHI broth to determine the MIC and with BHIG broth to identify the MIC-B/MBC-B against planktonic and biofilm cells, respectively.
(§3) According to Clinical and Laboratory Standards Institute (CLSI 2010), the MIC is defined as the lowest concentration of antimicrobial compound producing no visible growth or complete inhibition of bacterial growth during 24 h. To determine MIC values, the broth microdilution assay was performed according to Algburi et al. (Algburi et al., 2015. Path Dis 73(5)) with minor modifications. Briefly, the overnight-grown cells were diluted with their suitable culture medium to approach ˜10^6 CFU/ml. The number of bacterial cells was identified using spot plate method (Turovskiy et al., 2012. Infect Dis Obstet Gynecol 2012:284762). The CAms were serially diluted twofold with sBHI into a non-tissue culture 96-well microplate plate (Falcon, Corning Incorporated, Corning, N.Y., USA) resulting in a final volume of 100 μl for each well. Aliquots of 100 μl of the diluted cell suspension (˜10^6 CFU/ml) were added to each well of a microplate that was treated with different concentrations of CAms. To avoid culture medium evaporation, 75 μl of mineral oil (Sigma-Aldrich, St. Louis, Mo.) was added to each treated well. The microplate was then transferred to the plate reader (Model 550, Bio-Rad Laboratories, Hercules, Calif., USA) and incubated at 37° C. for 24-36 h. The kinetic reading was statistically analyzed, and the MIC and sub-MIC of each CAm compound were determined.

[3] = test system: Lactobacillus plantarum ATCC 39268; experiment: MIC broth microdilution (Example 3); format: cell-based; conditions: planktonic
Protocol: as §1, §2, §3

[4] = test system: Lactobacillus rhamnosus 160; experiment: MIC broth microdilution (Example 3); format: cell-based; conditions: planktonic
Protocol: as §1, §2, §3

L. rhamnosus biofilm = experiment: Minimum biofilm bactericidal concentration (MBC-B); format: cell-based, Lactobacillus rhamnosus; conditions: pre-formed biofilm, ≥3 log reduction
Protocol: as §1
(§4) This assay was performed according to Algburi et al. (Algburi et al., 2015. Path Dis 73(5)) with minor modifications: the overnight-grown G. vaginalis was diluted to approximately 10^7 CFU/ml. For the biofilm formation assay, aliquots of 200 μl were added into a 96-well tissue culture microplate, sealed by amplification tape (Nalge Nunc International, Rochester, N.Y., USA) and incubated for 24-36 h at 37° C. After incubation, the planktonic cells were removed by gently washing the biofilm twice with 200 μl of fresh broth. The biofilm was then treated with 200 μl of a predetermined concentration of the tested compound. The microplate was incubated for 24 h at 37° C. under anaerobic conditions. After incubation, the antimicrobials (supernatant) were discarded and the biofilm was washed twice with fresh BHIG broth. The biofilm was then disrupted by vigorous pipetting, in order to determine the number of biofilm-associated cells using the spot plate method.

L. gasseri biofilm = experiment: Minimum biofilm bactericidal concentration (MBC-B); format: cell-based, Lactobacillus gasseri; conditions: pre-formed biofilm, ≥3 log reduction
Protocol: as §1, §4

Row | Structure (SMILES) | MIC S. typhimurium (G−) [1] | MIC L. gasseri [2] | MIC L. plantarum [3] | MIC L. rhamnosus [4] | MBC-B L. rhamnosus (L. rhamnosus biofilm) | MBC-B L. gasseri (L. gasseri biofilm)
1 | CCCCCCCCCCOC(C(=O)NCCN)C(OCCCCCCCCCC)C(=O)NCCN.Cl.Cl (stereo not drawn) [5b] | 3.9 µg/mL | 4.4 µM | 25.7 µM | 13.3 µM | >850 µM | >850 µM
2 | CCCCCCCC(=O)OC(C(=O)NCCN)C(OC(=O)CCCCCCC)C(=O)NCCN.Cl.Cl (stereo not drawn) [8a] | 62.5 µg/mL | 55.9 µM | 223 µM | 111.6 µM | >890 µM | >890 µM
3 | CCCCCCCCCC(=O)OC(C(=O)NCCN)C(OC(=O)CCCCCCCCC)C(=O)NCCN.Cl.Cl (stereo not drawn) [8b] | 3.9 µg/mL | 12.7 µM | 33.3 µM | 12.7 µM | >810 µM | 810 µM
